As usually defined, the EC50 is the concentration at which the effect is half-maximal. A word on the solubility: it is the dissolved amount per volume that the medium holds. A higher solubility goes with much dissolved substance.

The target of series [1] is T1, Recombinant human soluble guanylate cyclase (sGC), alpha 1 / beta 1 subunits, heme-free (Homo sapiens, UniProt Q02108+Q02153).
T1 construct: histidine tag (C); made in house; host or cells: Sf9 insect cells (baculovirus coinfection)
T1 sequence (Q02108 1-690 partner): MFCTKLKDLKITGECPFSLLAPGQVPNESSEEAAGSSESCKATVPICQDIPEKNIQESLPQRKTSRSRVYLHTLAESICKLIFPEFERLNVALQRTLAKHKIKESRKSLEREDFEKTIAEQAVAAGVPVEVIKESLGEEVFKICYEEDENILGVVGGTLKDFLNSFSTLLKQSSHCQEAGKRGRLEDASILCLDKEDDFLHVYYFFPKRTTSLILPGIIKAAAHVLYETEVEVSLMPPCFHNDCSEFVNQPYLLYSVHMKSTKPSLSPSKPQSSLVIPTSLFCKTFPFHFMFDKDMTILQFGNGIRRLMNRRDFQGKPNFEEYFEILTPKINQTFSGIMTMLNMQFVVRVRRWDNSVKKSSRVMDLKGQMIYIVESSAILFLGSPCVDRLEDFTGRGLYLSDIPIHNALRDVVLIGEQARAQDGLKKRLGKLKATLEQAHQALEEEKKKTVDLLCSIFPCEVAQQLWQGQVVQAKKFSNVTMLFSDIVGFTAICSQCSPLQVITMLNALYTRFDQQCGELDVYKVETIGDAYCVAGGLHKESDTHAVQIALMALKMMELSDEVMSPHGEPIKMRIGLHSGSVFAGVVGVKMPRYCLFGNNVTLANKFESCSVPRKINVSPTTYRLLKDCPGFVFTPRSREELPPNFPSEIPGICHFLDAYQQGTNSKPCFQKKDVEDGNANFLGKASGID
T1 sequence (Q02153 1-619): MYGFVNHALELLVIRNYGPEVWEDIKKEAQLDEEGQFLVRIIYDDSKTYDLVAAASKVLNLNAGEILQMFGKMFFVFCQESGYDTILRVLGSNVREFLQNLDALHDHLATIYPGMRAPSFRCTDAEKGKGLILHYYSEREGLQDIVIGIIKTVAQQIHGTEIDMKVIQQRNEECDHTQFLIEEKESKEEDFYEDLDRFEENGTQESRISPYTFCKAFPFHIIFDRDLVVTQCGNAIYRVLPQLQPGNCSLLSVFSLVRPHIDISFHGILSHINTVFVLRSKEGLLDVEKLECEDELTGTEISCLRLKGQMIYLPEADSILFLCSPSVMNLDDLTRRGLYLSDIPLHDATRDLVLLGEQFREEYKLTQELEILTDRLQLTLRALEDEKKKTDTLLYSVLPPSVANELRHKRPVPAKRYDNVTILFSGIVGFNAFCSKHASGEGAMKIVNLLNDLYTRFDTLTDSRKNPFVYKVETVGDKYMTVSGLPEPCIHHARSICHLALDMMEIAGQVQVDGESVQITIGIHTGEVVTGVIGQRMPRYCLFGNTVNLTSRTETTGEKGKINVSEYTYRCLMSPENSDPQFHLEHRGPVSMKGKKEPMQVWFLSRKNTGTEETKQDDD
The series can be described thus: Molecular assay: cGMP formation by heme-free recombinant sGC (CisBio cGMP detection kit). As to conditions: 300 pM heme-free sGC, 37° C., 60 min, cGMP readout; read-out: EC50 nM, Activity of Compounds in Molecular Assay. Format: biochemical. The procedure, abridged:
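cGMP generated over 60 min at 37° C (pH 6.8 MOPS buffer, 50 nM GTP, 1.25 mM IBMX, 1% DMSO) by 300 pM heme-free sGC, expressed in Sf9 and heme-stripped with 0.5% Tween 20. HTRF ratios converted to nM cGMP; EC50 fitted from log concentration.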

Series [2] in a line: Assessment of solubility: HT solubility in pION buffer, UV spectrophotometry. As to conditions: 16-19 h incubation, 1.0% DMSO; for solubility: pION system solution buffer, kinetic from dmso stock.
Where [3] appears, read: pH 4.5, pH 4.5, aqueous buffer, Solubility (pH 4.5), pH 4.5 buffer.
Where [4] appears, read: pH 7.4, pH 7.4, aqueous buffer, Solubility (pH 7.4), pH 7.4 buffer.

Structures are written as SMILES. Converted amounts (≈) assume the structure as drawn.

Consider `Cc1cc(CN2CCOCC2)ccc1COc1ccc(F)cc1-c1csc(N2CC3CCC(C2)C3C(=O)O)n1` (stereo not drawn) [Compound 77], for which the EC50 in series [1] was determined as 4400 nM. The solubility in series [2] (setting [3]) is 22 µg/mL (≈ 39.9 µM); in series [2] (setting [4]), 16 µg/mL (≈ 29 µM).
For `Cc1ccc(OCc2ccc(CN3CCOCC3)cc2C)c(-c2csc(N3CC(C(=O)O)C3)n2)c1` [Compound 215], in that order: 1000 nM, above 60 µg/mL and above 60 µg/mL.
On the same counts, the results for `COCCN(C)Cc1ccc(COc2ccc(C)cc2-c2csc(N3CC[C@@H](C(=O)O)[C@@H](C)C3)n2)c(C#N)c1` [Compound 75] are 600 nM, above 66 µg/mL and above 66 µg/mL.
`Cc1cc(CN2CCOCC2)ccc1COc1ccc(Cl)cc1-c1csc(N2C3CCC2CC(C(=O)O)C3)n1` (stereo not drawn) [Compound 100]: the EC50 in series [1] came to 440 nM. For the same compound, the solubility in series [2] (setting [3]) came out at 20 µg/mL (≈ 35.2 µM); in series [2] (setting [4]), 27 µg/mL (≈ 47.5 µM).
On the same counts, the results for `Cc1cc(CN2CCOCC2)ccc1COc1ccccc1-c1csc(N2CCC(C(=O)O)C(C)C2)n1` (stereo not drawn) [Compound 24] are 510 nM, above 59 µg/mL and above 59 µg/mL.
In the case of `Cc1cc(C(=O)N2CCCCC2)ccc1COc1ccccc1-c1csc(N2CCC(C(=O)O)CC2)n1` [Compound 17], the EC50 in series [1] came out at 79 nM. For the same compound, the solubility in series [2] (setting [3]) was 0.7 µg/mL (≈ 1.35 µM); in series [2] (setting [4]) it was above 51 µg/mL.
On the same counts, the results for `Cc1cc(C(=O)N2CCCCC2)ccc1COc1ccccc1-c1csc(N2CCC(C(=O)O)CC2C)n1` (stereo not drawn) [Compound 41] are 70 nM, 1.1 µg/mL (≈ 2.06 µM) and above 53 µg/mL.
Turning to `Cc1ccc(OCc2ccc(CN3CCOCC3)cc2C#N)c(-c2csc(N3CC[C@@H](C(=O)O)[C@@H](C)C3)n2)c1` (relative stereo) [Compound 69, cis-1-[4-[2-[[2-cyano-4-(morpholinomethyl)phenyl]methoxy]-5-methyl-phenyl]thiazol-2-yl]-3-methyl-piperidine-4-carboxylic acid], in series [1], the EC50 was determined as 72 nM. Moreover, the solubility in series [2] (setting [3]) and in series [2] (setting [4]) was above 65 µg/mL in each case.
With `Cc1cc(CN2CCOCC2)ccc1COc1ccc(F)cc1-c1csc(N2CCC(C(=O)O)C(C)C2)n1` (stereo not drawn) [Compound 58], in series [1], the EC50 was found to be 480 nM. For the same compound, the results for the solubility in series [2] (setting [3]) and in series [2] (setting [4]) were 44 µg/mL (≈ 81.5 µM) and above 61 µg/mL, respectively.
For `Cc1ccc(OCc2ccc(CN3CCS(=O)(=O)CC3)cc2C)c(-c2csc(N3CCC(C(=O)O)CC3C(F)(F)F)n2)c1` (stereo not drawn) [Compound 153], in that order: 43 nM, 0.2 µg/mL (≈ 0.314 µM) and above 63 µg/mL.
With `Cc1ccc(OCc2ccc(C(=O)N(C)CC3CCCCC3)cc2C#N)c(-c2csc(N3CCC(C(=O)O)CC3)n2)c1` [Compound 125], the EC50 in series [1] amounted to 74 nM. For the same compound, the “Solubility (pH 4.5)” value in series [2] (pH 4.5 buffer) is reported as 0.1 μg/mL. The compound further displayed a solubility in series [2] (setting [4]) of 14 µg/mL (≈ 23.9 µM).
With `Cc1cc(C(=O)N2CCCCC2)ccc1COc1ccc(C#N)cc1-c1csc(N2CCC(C(=O)O)C(C(F)(F)F)C2)n1` (stereo not drawn) [Compound 148], the EC50 in series [1] worked out at 4100 nM. Besides, the figures for the solubility in series [2] (setting [3]) and in series [2] (setting [4]) were 0.3 µg/mL (≈ 0.49 µM) and above 61 µg/mL, respectively.
For `Cc1ccc(OCc2ccc(C(=O)N3CCCCC3)cc2C)c(-c2csc(N3CCC(C(=O)O)CC3C)n2)c1` (stereo not drawn) [Compound 73], in that order: 7.6 nM, 1.9 µg/mL (≈ 3.47 µM) and above 54 µg/mL.
For `Cc1ccc(OCc2ccc(CN3CCOCC3)cc2C)c(-c2csc(N3CCC(F)(C(=O)O)CC3)n2)c1` [Compound 60], the EC50 in series [1] was 1200 nM. Besides, the solubility in series [2] (setting [3]) and in series [2] (setting [4]) was above 58 µg/mL in each case.
As to `Cc1cc(CN2CCOCC2)ccc1COc1ccc(Cl)cc1-c1csc(N2CCC(C(=O)O)CC2C)n1` (stereo not drawn) [Compound 84], the EC50 in series [1] was 180 nM. Besides, the figures for the solubility in series [2] (setting [3]) and in series [2] (setting [4]) were 14 µg/mL (≈ 25.2 µM) and 21 µg/mL (≈ 37.8 µM), respectively.
In the case of `Cc1ccc(OCc2ccc(C(=O)N3CCCCC3)cc2C)c(-c2csc(N3CCC(C(=O)O)C(C(F)(F)F)C3)n2)c1` (stereo not drawn) [Compound 142], in series [1], the EC50 is 160 nM. Also, the solubility in series [2] (setting [3]) is 2 µg/mL (≈ 3.32 µM); in series [2] (setting [4]), above 60 µg/mL.
Regarding `Cc1cc(C(=O)N2CCCCC2)ccc1COc1ccc(C#N)cc1-c1csc(N2CCC(C(=O)O)CC2C)n1` (stereo not drawn) [Compound 85], the EC50 in series [1] was found to be 1100 nM. Besides, the solubility was 0.35 µg/mL (≈ 0.626 µM) in series [2] (setting [3]) and above 55 µg/mL in series [2] (setting [4]).
For `Cc1cc(CN2CCOCC2)ccc1COc1c(-c2csc(N3CCC(C(=O)O)CC3)n2)cccc1C(F)(F)F` [Compound 113], in that order: 56 nM, above 57 µg/mL and above 57 µg/mL.
For `Cc1cc(CN2CCCC(C(N)=O)C2)ccc1COc1c(C)cccc1-c1csc(N2CCC(C(=O)O)CC2)n1` (stereo not drawn) [Compound 94], in that order: 770 nM, above 56 µg/mL and above 56 µg/mL.
`Cc1cc(C(=O)N2CCCCC2)ccc1COc1ccccc1-c1csc(C2=CCC(C(=O)O)CC2)n1` (stereo not drawn) [Compound 8]: the EC50 in series [1] is 330 nM. Moreover, the solubility in series [2] (setting [3]) is 0.15 µg/mL (≈ 0.29 µM); in series [2] (setting [4]), above 51 µg/mL.
For `CNC(=O)C1CCN(Cc2ccc(COc3c(C)cccc3-c3csc(N4CCC(C(=O)O)CC4)n3)c(C)c2)CC1` [Compound 115], in that order: 2700 nM, above 57 µg/mL and above 57 µg/mL.
On the same counts, the results for `Cc1cc(C(=O)N2CCCCC2)ccc1COc1ccc(Cl)cc1-c1csc(N2C3CCC2CC(C(=O)O)C3)n1` (stereo not drawn) [Compound 117] are 30 nM, 0.25 µg/mL (≈ 0.431 µM) and above 57 µg/mL.
Turning to `Cc1ccc(OCc2ccc(C(=O)N3CCCCC3)cc2C#N)c(-c2csc(N3CCC(C(=O)O)CC3)n2)c1` [Compound 65], the EC50 in series [1] came to 58 nM. Besides, the “Solubility (pH 4.5)” value in series [2] (pH 4.5 buffer) turned out to be 0.1 μg/mL. In series [2] (setting [4]), this compound had a solubility of 23 µg/mL (≈ 42.2 µM).
For `Cc1cc(CN2CCCC(O)C2)ccc1COc1c(C)cccc1-c1csc(N2CCC(C(=O)O)CC2)n1` (stereo not drawn) [Compound 53], the EC50 in series [1] was found to be 640 nM. The solubility in series [2] (setting [3]) and in series [2] (setting [4]) was above 53 µg/mL throughout.
As for `Cc1cc(CN2CCOCC2)ccc1COc1c(C)cccc1-c1csc(N2CCC(C(=O)O)CC2)n1` [Compound 21], in series [1], the EC50 came to 70 nM. The solubility in series [2] (setting [3]) and in series [2] (setting [4]) was above 52 µg/mL in each case.
For `Cc1ccc(OCc2ccc(CNC3CCCCC3)cc2C)c(-c2csc(N3CCC(C(=O)O)CC3)n2)c1` [Compound 45], the EC50 in series [1] was found to be 730 nM. Further, the solubility in series [2] (setting [3]) was above 64 µg/mL; in series [2] (setting [4]), 35 µg/mL (≈ 65.6 µM).
As for `Cc1cc(CN2CCS(=O)(=O)CC2)ccc1COc1ccc(F)cc1-c1csc(N2C3CCC2CC(C(=O)O)C3)n1` (stereo not drawn) [Compound 139], the half-maximal effective concentration (EC50) in series [1] stood at 380 nM. Besides, the results for the solubility in series [2] (setting [3]) and in series [2] (setting [4]) were 0.6 µg/mL (≈ 1 µM) and above 59 µg/mL, respectively.
As to `Cc1cc(C(=O)N2CCCCC2)ccc1COc1ccccc1-c1csc([C@H]2CC[C@@H](C(=O)O)CC2)n1` [Compound 11], in series [1], the EC50 is 2300 nM. Moreover, the “Solubility (pH 4.5)” value in series [2] (pH 4.5 buffer) is on record as 0.1 μg/mL. The compound also showed a solubility in series [2] (setting [4]) above 51 µg/mL.
Regarding `Cc1ccc(OCc2ccc(CN3CCS(=O)(=O)CC3)cc2C)c(-c2csc(N3CCC(C(=O)O)C(C(F)(F)F)C3)n2)c1` (stereo not drawn) [Compound 154], in series [1], the EC50 came out at 530 nM. The solubility is 0.8 µg/mL (≈ 1.25 µM) in series [2] (setting [3]) and above 63 µg/mL in series [2] (setting [4]).
On the same counts, the results for `Cc1ccc(OCc2ccc(CN3CCOCC3)cc2C)c(-c2csc(N3CC4CCC(C3)C4C(=O)O)n2)c1` (stereo not drawn) [Compound 74] are 27 nM, 40 µg/mL (≈ 73 µM) and 42 µg/mL (≈ 76.7 µM).

The values are drawn from patent US8815857B2 (Boehringer Ingelheim International GmbH, priority 2011, dated 2014).
